Patent US9187524B2, “Broad spectrum antibiotic arylomycin analogs” (The Scripps Research Institute, priority 2010, dated 2015)
≈ marks a conversion by molar mass, not a printed value. Like-named read-outs stand apart in the source and are kept apart here.

Experiments:
[1] = system: lepB(P29S) S. aureus 8325; assay: microbe, parasite or virus in culture; assay type: cell-based, Staphylococcus aureus; settings: for MIC: Staphylococcus aureus
[2] = system: lepB(P84L) P. aeruginosa PAO1; assay: microbe, parasite or virus in culture; assay type: cell-based, Pseudomonas aeruginosa; settings: for MIC: Pseudomonas aeruginosa
[3] = system: spsB(S29P) S. epidermidis RP62A; assay: microbe, parasite or virus in culture; assay type: cell-based, Staphylococcus epidermidis; settings: for MIC: Staphylococcus epidermidis
wild type S. aureus 8325 = assay: microbe, parasite or virus in culture; assay type: cell-based, Staphylococcus aureus; settings: for MIC: Staphylococcus aureus
wild type E. coli MG1655 = assay: microbe, parasite or virus in culture; assay type: cell-based, Escherichia coli; settings: for MIC: Escherichia coli
[4] = system: wild type P. aeruginosa PAO1; assay: microbe, parasite or virus in culture; assay type: cell-based, Pseudomonas aeruginosa; settings: for MIC: Pseudomonas aeruginosa
B. brevis = assay: microbe, parasite or virus in culture; assay type: cell-based, Brevibacillus brevis; settings: for MIC: Brevibacillus brevis
R. equi = assay: microbe, parasite or virus in culture; assay type: cell-based; settings: Rhodococcus (subgen. Prescottella) equi; Table 4
R. opacus = assay: microbe, parasite or virus in culture; assay type: cell-based; settings: Rhodococcus opacus
S. agalactiae = assay: microbe, parasite or virus in culture; assay type: cell-based, Streptococcus agalactiae; settings: for MIC: Streptococcus agalactiae
S. pyogenes = assay: microbe, parasite or virus in culture; assay type: cell-based, Streptococcus pyogenes; settings: for MIC: Streptococcus pyogenes
[5] = system: Staphylococcus haemolyticus; assay: microbe, parasite or virus in culture; assay type: cell-based; settings: Table 13
Helicobacter pylori = assay: microbe, parasite or virus in culture; assay type: cell-based
Chlamydia trachomatis = assay: microbe, parasite or virus in culture; assay type: cell-based
Francisella tularensis = assay: microbe, parasite or virus in culture; assay type: cell-based
Yersinia pestis = assay: microbe, parasite or virus in culture; assay type: cell-based; settings: read-out: MIC, Yersinia pestis
[6] = system: E. coli PAS0232 (SPase P84S); assay: microbe, parasite or virus in culture; assay type: cell-based; settings: Escherichia coli, read-out: MIC, E. coli PAS0232
Rhodococcus erythropolis = assay: microbe, parasite or virus in culture; assay type: cell-based; settings: Table 13
[7] = system: Staphylococcus aureus (different strains); assay type: cell-based; settings: Table 13; multiple values: different strains
Enterococcus faecalis = assay: microbe, parasite or virus in culture; assay type: cell-based; settings: Table 13
Klebsiella pneumoniae = assay: microbe, parasite or virus in culture; assay type: cell-based; settings: Table 13
Lactobacillus gasseri = assay: microbe, parasite or virus in culture; assay type: cell-based; settings: Table 13
Lactobacillus plantarum = assay: microbe, parasite or virus in culture; assay type: cell-based; settings: Lactiplantibacillus plantarum, Table 13
Clostridium difficile = assay: microbe, parasite or virus in culture; assay type: cell-based; settings: Clostridioides difficile, Table 13
Clostridium bolteae = assay: microbe, parasite or virus in culture; assay type: cell-based; settings: Enterocloster bolteae, Table 13
Prevotella copris = assay: microbe, parasite or virus in culture; assay type: cell-based; settings: Table 13
S. aureus COL = assay: microbe, parasite or virus in culture; assay type: cell-based; settings: Staphylococcus aureus, read-out: MIC, S. aureus COL
S. aureus Rosenbach 328 = assay: microbe, parasite or virus in culture; assay type: cell-based; settings: Staphylococcus aureus; MRSA strain
[8] = target: T1, truncated wild type E. coli SPase (Escherichia coli, UniProt P00803); assay: biochemical; assay type: binding
T1 construct: a truncated wild type E. coli SPase that lacks the N-terminal membrane helices; made in house; host or cells: E. coli BL21(DE3)

[9] = target: T2, full-length P84S E. coli SPase (Ser-variant) (Escherichia coli, UniProt P00803, P84S); assay: biochemical; assay type: binding
T2 construct: Full length His-tagged E. coli SPase proteins were expressed in BL21(DE3); His6; made in house; host or cells: E. coli BL21(DE3)

[10] = target: T3, full-length wild type S. aureus SPase (Pro-variant) (Staphylococcus aureus, UniProt P0A070); assay: biochemical; assay type: binding
T3 construct: Full length His-tagged S. aureus SPase proteins were expressed in and purified from BL21(DE3); His6 (N); made in house; host or cells: E. coli BL21(DE3)

[11] = target: T4, full-length P29S mutant S. aureus SPase (Ser-variant) (Staphylococcus aureus, UniProt P0A070, P29S); assay: biochemical; assay type: binding
T4 construct: Full length His-tagged S. aureus SPase proteins were expressed in and purified from BL21(DE3); His6 (N); made in house; host or cells: E. coli BL21(DE3)

[12] = Table 2B, SPase without resistance-conferring Pro
[13] = Table 2B, SPase with resistance-conferring Pro

Question: How did the MIC ([1]; read-out: MIC, S. aureus P29S) turn out when `CCCCCCCCCCCCCCCC(=O)N(C)[C@H](CO)C(=O)N[C@H](C)C(=O)NCC(=O)N(C)[C@@H]1C(=O)N[C@@H](C)C(=O)N[C@H](C(=O)O)Cc2ccc(O)c(c2)-c2cc1ccc2O` [Arylomycin C16] was run?
Answer: Its MIC is 8 mg/L (≈ 9.08 µM).

Question: And the MIC ([1]; read-out: MIC, S. aureus PAS8001)?
Answer: Its MIC is 2 mg/L (≈ 2.27 µM).

Question: What about the MIC ([1]; read-out: MIC, Sensitive Sa) of the same compound?
Answer: Its MIC is 2 mg/L (≈ 2.27 µM).

Question: And the “MIC, Sensitive Sa” value [1, 12]?
Answer: Its value is 2 mg/L (≈ 2.27 µM).

Question: And the MIC ([2]; PAO1, read-out: MIC, P. aeruginosa P84L)?
Answer: Its MIC is 4 mg/L (≈ 4.54 µM).

Question: And the MIC ([2]; PAO1, read-out: MIC, Sensitive Pa)?
Answer: Its MIC is 8 mg/L (≈ 9.08 µM).

Question: And the “MIC, Sensitive Pa” value [2, 12]?
Answer: Its value is 8 mg/L (≈ 9.08 µM).

Question: And the MIC ([3]; read-out: MIC, Resistant Se)?
Answer: Its MIC is 8 mg/L (≈ 9.08 µM).

Question: And the MIC ([3]; read-out: MIC, S. epidermidis PAS9001)?
Answer: The MIC was 8 mg/L (≈ 9.08 µM).

Question: What about the MIC ([3]; read-out: MIC, resistant S. epidermidis) of the same compound?
Answer: Its MIC is 8 mg/L (≈ 9.08 µM).

Question: And the “MIC, Resistant Se” value [3, 13]?
Answer: Its value is 8 mg/L (≈ 9.08 µM).

Question: And the “fold elevated MIC compared to the wild type strain, Ser to Pro at position 29” value ([3]; ~75% of selected S. epidermidis mutants)?
Answer: The value was 32 fold.

Question: What about the MIC (wild type S. aureus 8325; read-out: MIC, Resistant Sa) of the same compound?
Answer: The MIC was over 64 mg/L.

Question: What about the MIC (wild type S. aureus 8325; Table 11, […], read-out: MIC, S. aureus NTCT 8325) of the same compound?
Answer: The MIC was over 128 mg/L.

Question: What about the “MIC, Resistant Sa” value (wild type S. aureus 8325; [13]) of the same compound?
Answer: The value was over 64 mg/L.

Question: And the MIC (wild type E. coli MG1655; MG1655, read-out: MIC, Resistant Ec)?
Answer: Its MIC is over 64 mg/L.

Question: And the MIC (wild type E. coli MG1655; MG1655, Table 11, […], read-out: MIC, E. coli MG1655)?
Answer: The MIC was over 128 mg/L.

Question: And the MIC (wild type E. coli MG1655; MG1655, Table 13, […], read-out: MIC, Escherichia coli)?
Answer: Its MIC is over 128 mg/L.

Question: What about the MIC (wild type E. coli MG1655; MG1655, read-out: MIC, E. coli) of the same compound?
Answer: The MIC was over 64 mg/L.

Question: And the “MIC, Resistant Ec” value (wild type E. coli MG1655; [13])?
Answer: The value was over 64 mg/L.

Question: What about the MIC ([4]; PAO1, read-out: MIC, Resistant Pa) of the same compound?
Answer: Its MIC is over 64 mg/L.

Question: What about the MIC ([4]; PAO1, Table 11, […], read-out: MIC, P. aeruginosa PAO1) of the same compound?
Answer: The MIC was over 128 mg/L.

Question: And the MIC ([4]; PAO1, Table 13, […], read-out: MIC, Pseudomonas aeruginosa)?
Answer: Its MIC is over 128 mg/L.

Question: What about the “MIC, Resistant Pa” value [4, 13] of the same compound?
Answer: Its value is over 64 mg/L.

Question: What about the MIC (B. brevis; Table 4, read-out: MIC, B. brevis) of the same compound?
Answer: The MIC was over 64 mg/L.

Question: What about the MIC (B. brevis; Table 13, […], read-out: MIC, Brevibacillus brevis) of the same compound?
Answer: The MIC was over 64 mg/L.

Question: What about the “activity against B. brevis” value (B. brevis; MHBII broth and nutrient broth) of the same compound?
Answer: Its value is “no activity”.

Question: And the MIC (R. equi)?
Answer: The MIC was 16 mg/L (≈ 18.2 µM).

Question: What about the MIC (R. opacus; Table 4, read-out: MIC, R. opacus) of the same compound?
Answer: Its MIC is 1 mg/L (≈ 1.13 µM).

Question: And the MIC (R. opacus; Table 13, […], read-out: MIC, Rhodococcus opacus)?
Answer: The MIC was 2 mg/L (≈ 2.27 µM).

Question: What about the MIC (S. agalactiae; Table 4, read-out: MIC, S. agalactiae) of the same compound?
Answer: The MIC was over 128 mg/L.

Question: And the MIC (S. agalactiae; Table 13, […], read-out: MIC, Streptococcus agalactiae)?
Answer: Its MIC is over 128 mg/L.

Question: What about the “MIC, S. agalactiae” value (S. agalactiae; Table 14) of the same compound?
Answer: Its value is over 128 mg/L.

Question: And the MIC (S. pyogenes; Table 4, read-out: MIC, S. pyogenes)?
Answer: The MIC was 8 mg/L (≈ 9.08 µM).

Question: And the MIC (S. pyogenes; Table 13, […], read-out: MIC, Streptococcus pyogenes)?
Answer: The MIC was 16 mg/L (≈ 18.2 µM).

Question: What about the “MIC, S. pyogenes” value (S. pyogenes; Table 14) of the same compound?
Answer: The value was 8 mg/L (≈ 9.08 µM).

Question: And the MIC [5]?
Answer: Its MIC is 2 mg/L (≈ 2.27 µM).

Question: What about the MIC (Helicobacter pylori; Table 13, […], read-out: MIC, Helicobacter pylori) of the same compound?
Answer: The MIC was 4 mg/L (≈ 4.54 µM).

Question: What about the MIC (Helicobacter pylori; read-out: MIC, H. pylori) of the same compound?
Answer: Its MIC is 4 mg/L (≈ 4.54 µM).

Question: What about the MIC (Chlamydia trachomatis; Table 13, […], read-out: MIC, Chlamydia trachomatis) of the same compound?
Answer: Its MIC is 6 mg/L (≈ 6.81 µM).

Question: What about the MIC (Chlamydia trachomatis; eradicated from human HeLa 229 cells, read-out: MIC, C. trachomatis) of the same compound?
Answer: Its MIC is 6 mg/L (≈ 6.81 µM).

Question: What about the MIC (Francisella tularensis; read-out: MIC, Francisella tularensis clinical isolate) of the same compound?
Answer: The MIC was 32 mg/L (≈ 36.3 µM).

Question: What about the MIC (Francisella tularensis; read-out: MIC, Francisella tularensis clinical isolates, 8 of nineteen clinical isolates) of the same compound?
Answer: Its MIC is 4 to 16 mg/L (≈ 4.54 to 18.2 µM).

Question: And the MIC (Francisella tularensis; read-out: MIC, Francisella tularensis clinical isolates, remainder of nineteen clinical isolates)?
Answer: Its MIC is over 64 mg/L.

Question: What about the MIC (Yersinia pestis) of the same compound?
Answer: The MIC was 4 mg/L (≈ 4.54 µM).

Question: What about the MIC [6] of the same compound?
Answer: The MIC was 2 mg/L (≈ 2.27 µM).

Question: And the MIC (Rhodococcus erythropolis)?
Answer: The MIC was 16 mg/L (≈ 18.2 µM).

Question: What about the “MIC, Staphylococcus aureus” value [7] of the same compound?
Answer: The value was 16 to 32 mg/L.

Question: What about the MIC (Enterococcus faecalis) of the same compound?
Answer: The MIC was over 64 mg/L.

Question: And the MIC (Klebsiella pneumoniae)?
Answer: Its MIC is over 128 mg/L.

Question: What about the MIC (Lactobacillus gasseri) of the same compound?
Answer: Its MIC is over 128 mg/L.

Question: What about the MIC (Lactobacillus plantarum) of the same compound?
Answer: The MIC was over 128 mg/L.

Question: And the MIC (Clostridium difficile)?
Answer: Its MIC is over 16 mg/L.

Question: What about the MIC (Clostridium bolteae) of the same compound?
Answer: The MIC was over 16 mg/L.

Question: What about the MIC (Prevotella copris) of the same compound?
Answer: The MIC was over 16 mg/L.

Question: What about the MIC (S. aureus COL) of the same compound?
Answer: Its MIC is 12 mg/L (≈ 13.6 µM).

Question: And the MIC (S. aureus Rosenbach 328)?
Answer: Its MIC is 25 mg/L (≈ 28.4 µM).

Question: And the Kd [8]?
Answer: Its Kd is 0.979 ± 0.069 µM.

Question: And the Kd [9]?
Answer: The Kd was 0.0057 ± 0.001 µM.

Question: What about the Kd [10] of the same compound?
Answer: Its Kd is 1.28 ± 0.278 µM.

Question: And the Kd [11]?
Answer: Its Kd is 0.13 ± 0.053 µM.
